Measured values from the NIST ThermoML archive (doi:10.1021/acs.jced.9b00507).
± gives the expanded uncertainty stated by the source.

Experiment: xn = mol fraction of the nth substance listed
Conditions: 100 kPa, Liquid; for viscosity: Concentric cylinders viscometry; for mass density: Vibrating tube method

CCCCCCn1cc[n+](C)c1.O=[N+]([O-])[O-] [1-hexyl-3-methylimidazolium nitrate] + CCCCCCCCCCO
Conditions | mass density [kg/m3] | viscosity [mPa·s]
293.15 K, x1 = 0.0818 | 855.4 ± 1.2 | 18.62 ± 1.5
293.15 K, x1 = 0.1583 | 879.2 ± 1.2 | 24.27 ± 1.9
293.15 K, x1 = 0.2414 | 904.7 ± 1.2 | 33.34 ± 2.7
293.15 K, x1 = 0.3482 | 937.1 ± 1.2 | 50.7 ± 4.1
293.15 K, x1 = 0.4414 | 964.8 ± 1.2 | 73.79 ± 6
293.15 K, x1 = 0.5593 | 999.2 ± 1.2 | 119.12 ± 9.7
293.15 K, x1 = 0.6481 | 1024.6 ± 1.2 | 173.38 ± 14
293.15 K, x1 = 0.7414 | 1050.8 ± 1.3 | 261.82 ± 22
293.15 K, x1 = 0.8496 | 1080.4 ± 1.4 | 419.76 ± 36
293.15 K, x1 = 0.9402 | 1104.7 ± 1.4 | 625.17 ± 54
293.15 K, x1 = 1 | 1120.3 ± 1.4 | 804.17 ± 70
298.15 K, x1 = 0.0818 | 851.9 ± 1.2 | 15 ± 1.2
298.15 K, x1 = 0.1583 | 875.7 ± 1.2 | 18.75 ± 1.5
298.15 K, x1 = 0.2414 | 901.3 ± 1.2 | 23.93 ± 1.9
298.15 K, x1 = 0.3482 | 933.6 ± 1.2 | 33.81 ± 2.7
298.15 K, x1 = 0.4414 | 961.4 ± 1.2 | 47.42 ± 3.8
298.15 K, x1 = 0.5593 | 995.8 ± 1.2 | 74.3 ± 6
298.15 K, x1 = 0.6481 | 1021.3 ± 1.2 | 111.69 ± 9.1
298.15 K, x1 = 0.7414 | 1047.5 ± 1.3 | 171 ± 14
298.15 K, x1 = 0.8496 | 1077.3 ± 1.4 | 276.06 ± 23
298.15 K, x1 = 0.9402 | 1101.7 ± 1.4 | 417.45 ± 36
298.15 K, x1 = 1 | 1117.5 ± 1.4 | 545.25 ± 47
303.15 K, x1 = 0.0818 | 848.4 ± 1.2 | 11.86 ± 0.95
303.15 K, x1 = 0.1583 | 872.2 ± 1.2 | 14.39 ± 1.2
303.15 K, x1 = 0.2414 | 897.7 ± 1.2 | 17.58 ± 1.4
303.15 K, x1 = 0.3482 | 930 ± 1.2 | 22.91 ± 1.8
303.15 K, x1 = 0.4414 | 957.8 ± 1.2 | 30.27 ± 2.4
303.15 K, x1 = 0.5593 | 992.2 ± 1.2 | 45.39 ± 3.7
303.15 K, x1 = 0.6481 | 1017.7 ± 1.2 | 65.77 ± 5.3
303.15 K, x1 = 0.7414 | 1044 ± 1.3 | 98.7 ± 8.1
303.15 K, x1 = 0.8496 | 1073.9 ± 1.3 | 168.66 ± 14
303.15 K, x1 = 0.9402 | 1098.4 ± 1.4 | 267.65 ± 22
303.15 K, x1 = 1 | 1114.3 ± 1.4 | 369.14 ± 31
308.15 K, x1 = 0.0818 | 845 ± 1.2 | 9.51 ± 0.76
308.15 K, x1 = 0.1583 | 868.7 ± 1.2 | 10.86 ± 0.87
308.15 K, x1 = 0.2414 | 894.2 ± 1.2 | 12.85 ± 1
308.15 K, x1 = 0.3482 | 926.4 ± 1.2 | 16.03 ± 1.3
308.15 K, x1 = 0.4414 | 954.2 ± 1.2 | 20.04 ± 1.6
308.15 K, x1 = 0.5593 | 988.6 ± 1.2 | 28.44 ± 2.3
308.15 K, x1 = 0.6481 | 1014.2 ± 1.2 | 39.63 ± 3.2
308.15 K, x1 = 0.7414 | 1040.5 ± 1.3 | 60.67 ± 4.9
308.15 K, x1 = 0.8496 | 1070.5 ± 1.3 | 108.57 ± 8.9
308.15 K, x1 = 0.9402 | 1095.1 ± 1.4 | 183.87 ± 15
308.15 K, x1 = 1 | 1111.1 ± 1.4 | 257.59 ± 21
313.15 K, x1 = 0.0818 | 841.4 ± 1.2 | 7.41 ± 0.59
313.15 K, x1 = 0.1583 | 865.1 ± 1.2 | 8.15 ± 0.65
313.15 K, x1 = 0.2414 | 890.6 ± 1.2 | 8.97 ± 0.72
313.15 K, x1 = 0.3482 | 922.8 ± 1.2 | 10.16 ± 0.82
313.15 K, x1 = 0.4414 | 950.5 ± 1.2 | 11.94 ± 0.96
313.15 K, x1 = 0.5593 | 984.9 ± 1.2 | 16.52 ± 1.3
313.15 K, x1 = 0.6481 | 1010.5 ± 1.2 | 23.5 ± 1.9
313.15 K, x1 = 0.7414 | 1036.9 ± 1.3 | 35.97 ± 2.9
313.15 K, x1 = 0.8496 | 1067 ± 1.3 | 67.47 ± 5.5
313.15 K, x1 = 0.9402 | 1091.7 ± 1.4 | 123.98 ± 10
313.15 K, x1 = 1 | 1107.8 ± 1.4 | 185.67 ± 15
318.15 K, x1 = 0.0818 | 837.9 ± 1.2 | 5.98 ± 0.48
318.15 K, x1 = 0.1583 | 861.6 ± 1.2 | 6.21 ± 0.5
318.15 K, x1 = 0.2414 | 887 ± 1.2 | 6.44 ± 0.52
318.15 K, x1 = 0.3482 | 919.2 ± 1.2 | 7.1 ± 0.57
318.15 K, x1 = 0.4414 | 946.9 ± 1.2 | 8.12 ± 0.65
318.15 K, x1 = 0.5593 | 981.4 ± 1.2 | 9.93 ± 0.8
318.15 K, x1 = 0.6481 | 1007 ± 1.2 | 13.43 ± 1.1
318.15 K, x1 = 0.7414 | 1033.5 ± 1.3 | 22.34 ± 1.8
318.15 K, x1 = 0.8496 | 1063.7 ± 1.3 | 47.97 ± 3.9
318.15 K, x1 = 0.9402 | 1088.5 ± 1.4 | 92.14 ± 7.6
318.15 K, x1 = 1 | 1104.7 ± 1.4 | 140.18 ± 11
323.15 K, x1 = 0.0818 | 834.4 ± 1.2 | 4.95 ± 0.4
323.15 K, x1 = 0.1583 | 858 ± 1.2 | 5.14 ± 0.41
323.15 K, x1 = 0.2414 | 883.4 ± 1.2 | 5.28 ± 0.42
323.15 K, x1 = 0.3482 | 915.6 ± 1.2 | 5.6 ± 0.45
323.15 K, x1 = 0.4414 | 943.3 ± 1.2 | 6.07 ± 0.49
323.15 K, x1 = 0.5593 | 977.8 ± 1.2 | 7.03 ± 0.57
323.15 K, x1 = 0.6481 | 1003.5 ± 1.2 | 9.04 ± 0.73
323.15 K, x1 = 0.7414 | 1030 ± 1.3 | 15.67 ± 1.3
323.15 K, x1 = 0.8496 | 1060.4 ± 1.3 | 36.3 ± 3
323.15 K, x1 = 0.9402 | 1085.3 ± 1.4 | 73.7 ± 6
323.15 K, x1 = 1 | 1101.6 ± 1.4 | 110.94 ± 9
